Source: US9562043B2 (EA Pharma Co., Ltd., priority 2012, dated 2017)
pIC50: −log10 of the molar value.

Legend:
[1] = target: T1, human TRPA1 (Homo sapiens, UniProt O75762); assay: Measurement of TRPA1 antagonist activity (intracellular calcium increase, FLIPR); type: cell-based; settings: 293T cells transfected with human TRPA1 expression plasmid, allylisothiocyanate 20 μM stimulation, calcium fluorescence, read-out: antagonism hTRPA1
T1 construct: host or cells: human embryonic kidney-derived 293T cells, transient transfection with pcDNA3.1/zeo(+) plasmid
T1 sequence (O75762 whole entry): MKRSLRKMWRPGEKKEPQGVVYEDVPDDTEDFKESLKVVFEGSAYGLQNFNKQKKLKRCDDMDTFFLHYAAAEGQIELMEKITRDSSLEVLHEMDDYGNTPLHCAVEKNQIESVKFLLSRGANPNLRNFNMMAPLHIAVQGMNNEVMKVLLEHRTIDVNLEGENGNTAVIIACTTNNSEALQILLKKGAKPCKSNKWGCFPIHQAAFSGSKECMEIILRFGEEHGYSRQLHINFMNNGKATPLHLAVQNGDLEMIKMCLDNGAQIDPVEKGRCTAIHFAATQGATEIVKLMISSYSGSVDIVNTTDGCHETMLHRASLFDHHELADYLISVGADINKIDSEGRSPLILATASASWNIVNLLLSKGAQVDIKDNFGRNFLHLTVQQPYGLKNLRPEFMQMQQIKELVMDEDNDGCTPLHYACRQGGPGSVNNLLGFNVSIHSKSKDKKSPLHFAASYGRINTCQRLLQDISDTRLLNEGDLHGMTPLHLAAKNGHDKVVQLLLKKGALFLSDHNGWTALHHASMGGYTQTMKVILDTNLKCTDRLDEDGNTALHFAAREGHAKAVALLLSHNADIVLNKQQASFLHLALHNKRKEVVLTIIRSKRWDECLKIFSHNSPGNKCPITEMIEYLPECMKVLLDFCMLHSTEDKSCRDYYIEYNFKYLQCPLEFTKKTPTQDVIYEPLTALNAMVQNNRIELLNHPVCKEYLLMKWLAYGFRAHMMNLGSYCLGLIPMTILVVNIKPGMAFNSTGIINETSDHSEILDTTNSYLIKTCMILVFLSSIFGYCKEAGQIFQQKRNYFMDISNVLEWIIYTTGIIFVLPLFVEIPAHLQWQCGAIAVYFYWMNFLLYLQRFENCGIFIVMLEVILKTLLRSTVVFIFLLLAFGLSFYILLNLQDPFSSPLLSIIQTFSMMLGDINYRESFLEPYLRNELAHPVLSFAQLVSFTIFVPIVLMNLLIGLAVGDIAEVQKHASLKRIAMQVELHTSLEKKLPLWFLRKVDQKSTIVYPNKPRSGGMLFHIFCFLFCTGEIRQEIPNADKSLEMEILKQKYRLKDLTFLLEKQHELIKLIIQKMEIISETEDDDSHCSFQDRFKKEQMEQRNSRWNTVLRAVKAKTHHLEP
Excerpt: Measurement of TRPA1 Antagonist Activity
Human TRPA1 Expression Plasmid
As cDNA encoding human TRPA1 (GenBank accession No. […]), a commercially available product was purchased (manufactured by Kazusa DNA Research Institute, clone No.: pFN21AB7348, item No.: FHC07217). Using this as a template, full-length human TRPA1 gene was amplified using the primer sequences shown below, by reaction using DNA polymerase (manufactured by Stratagene, trade name: PfuUltra High-Fidelity DNA Polymerase).
A recognition site (underlined) of restriction enzyme HindIII was added to the 5′ side, and XbaI site (underlined) was added to the 3′ side, and GTT of the template sequence was changed to termination codon TAG (bold). The obtained double stranded DNA was enzyme-digested with HindIII and XbaI, and introduced into a multicloning site of expression plasmid pcDNA3.1/zeo(+) (manufactured by Invitrogen) to give a human TRPA1 expression plasmid.
Human embryonic kidney-derived 293T cells were cultured in Dulbecco's Modified Eagle Medium containing 10% fetal bovine serum, 10 unit penicillin, and 10 μg streptomycin, plated on a petri dish having a diameter of 10 cm at 3×10^6 cells, and cultured for 24 hr. A medium containing a reduced amount of serum (manufactured by Invitrogen, trade name: OPTI-MEM, 600 μL), a gene insertion reagent (manufactured by Mirus Bio, trade name: Mirus TransIT-293, 18 μL), and human TRPA1 expression plasmid (6 μg) were mixed, the total amount of the mixture was added to the cells on the petri dish to allow for gene transfer. The cells were recovered about 8 hr later, plated on a poly-D-lysine coated 384 well black/clear bottom plate at 7,500-12,000 cells/well, and cultured overnight.
Measurement of Intracellular Calcium Increase
The 384 well plate was recovered, and the medium was removed. A calcium-bonded fluorescent indicator (manufactured by Molecular Device, trade name: Calcium4 Assay Kit, 40 μL) dissolved in assay buffer (1×HBSS, 20 mM HEPES, pH 7.2) was added, and the cells were stained in a 37° C. incubator for 1 hr. The cells were taken out at room temperature and left standing for 15 min or more. A test substance (10 μL) was added by a 384 well type dispenser, and the mixture was incubated at room temperature for 10 min. Then, allylisothiocyanate (12.5 μL) at a final concentration of 20 μM was added by a fluorescence imaging plate reader (manufactured by Molecular Device, FLIPR), and changes in the relative fluorescence intensity were measured for 5 min.
Test Substance Preparation
The test substance was dissolved in dimethyl sulfoxide and serially diluted with an assay buffer containing 0.1% bovine serum albumin (1×HBSS, 20 mM HEPES, pH 7.2) to a 5-fold concentration of the evaluation concentration. Allylisothiocyanate, which is a known TRPA1 activator, was dissolved in dimethyl sulfoxide to 100 mM, and further diluted 5-fold (100 μM) of the final concentration, like the test substance.
Calculation of Antagonist Activity
Under the test substance-free conditions, the maximum variation range of the fluorescence intensity before and after allylisothiocyanate stimulation was defined to be 100% activity rate, and the variation range before and after buffer stimulation was defined as 0% activity rate. The activity rate on addition of the test substance was determined, and the numerical value obtained by subtracting the activity rate from 100 was defined to be an inhibitory rate. IC50, which is the concentration of the test substance necessary for reaching the 50% inhibitory rate, was calculated from the sigmoid approximate curve by a spreadsheet software Excel-Fit.

[2] = target: T2, TRPA1 channel (Mus musculus, UniProt Q8BLA8); assay: AITC-induced pain behavior evaluation test (mouse licking model); type: in vivo; settings: male ICR mice; p.o. 30 mpk, 1 h before AITC (0.1%) s.c. to sole; licking time in 5 min vs vehicle
T2 construct: from tissue; host or cells: living male ICR mice (sole of the left leg, sensory nerves)
T2 sequence (Q8BLA8 whole entry): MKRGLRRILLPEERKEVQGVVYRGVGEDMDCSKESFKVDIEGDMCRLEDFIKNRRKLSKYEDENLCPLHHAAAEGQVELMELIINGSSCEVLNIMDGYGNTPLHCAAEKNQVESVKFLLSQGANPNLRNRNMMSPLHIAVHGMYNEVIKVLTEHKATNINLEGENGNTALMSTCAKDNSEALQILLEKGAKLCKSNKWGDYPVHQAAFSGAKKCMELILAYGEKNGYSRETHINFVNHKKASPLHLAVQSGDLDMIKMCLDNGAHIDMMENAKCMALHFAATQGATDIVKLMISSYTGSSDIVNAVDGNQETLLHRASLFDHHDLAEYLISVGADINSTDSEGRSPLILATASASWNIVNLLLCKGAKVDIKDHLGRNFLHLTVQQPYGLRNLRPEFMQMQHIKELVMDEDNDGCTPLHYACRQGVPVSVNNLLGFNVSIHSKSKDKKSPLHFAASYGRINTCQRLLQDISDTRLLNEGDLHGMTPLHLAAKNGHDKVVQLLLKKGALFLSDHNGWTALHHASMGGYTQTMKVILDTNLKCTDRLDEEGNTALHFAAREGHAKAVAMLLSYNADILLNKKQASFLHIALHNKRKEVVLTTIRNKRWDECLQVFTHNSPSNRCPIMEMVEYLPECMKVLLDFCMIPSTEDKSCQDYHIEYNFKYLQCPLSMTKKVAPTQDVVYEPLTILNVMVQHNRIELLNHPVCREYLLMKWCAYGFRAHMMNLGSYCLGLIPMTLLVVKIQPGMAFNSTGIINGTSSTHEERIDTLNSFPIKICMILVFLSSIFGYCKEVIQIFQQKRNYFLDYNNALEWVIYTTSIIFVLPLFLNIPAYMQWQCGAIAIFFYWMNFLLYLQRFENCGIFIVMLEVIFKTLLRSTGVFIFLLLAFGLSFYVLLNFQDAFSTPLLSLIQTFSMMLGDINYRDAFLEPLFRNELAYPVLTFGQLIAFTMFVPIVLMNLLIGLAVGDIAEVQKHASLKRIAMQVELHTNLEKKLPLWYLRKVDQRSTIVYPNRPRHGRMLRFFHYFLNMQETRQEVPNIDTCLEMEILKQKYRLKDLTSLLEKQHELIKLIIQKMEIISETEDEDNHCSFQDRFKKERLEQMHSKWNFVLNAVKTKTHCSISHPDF
Procedure: AITC-Induced Pain Behavior Evaluation Test
To evaluate the effectiveness of the test substance in vivo, allylisothiocyanate (AITC)-induced pain behavior evaluation test was performed using mice.
AITC is a selective agonist of the TRPA1 channel, and causes a pain behavior by TRPA1 activation when administered to animal. Therefore, the intensity of the TRPA1 antagonist action of the test substance in the living body can be evaluated by measuring the pain behavior after AITC administration.
1. Administration of Test Substance to Animal
As the animal, male ICR mice (6- to 8-week-old) were used. The mice were fasted the previous day of the test. The test substance was intraperitoneally or orally administered for evaluation. In the case of intraperitoneal administration, the substance was administered 30 min before the AITC administration. In the oral administration, the substance was administered 60 min before the AITC administration.
2. AITC-Induced Pain Behavior Evaluation
3. Calculation of Inhibitory Rate
The licking time of the vehicle administration group in each test was taken as 100%, and the activity rate by administration of each test substance (Licking time on test substance administration/Licking time of vehicle administration group×100) was determined, and the numerical value obtained by subtracting the activity rate from 100 was calculated as an inhibitory rate.

Compound | pIC50 [1] | mouse licking model (p.o. 1 h, 30 mpk) (% inh.) [2] [% inh.]
O=C(NCc1nc(-c2ccc(C(F)(F)F)cc2)cs1)[C@@H]1CCCN1S(=O)(=O)c1ccc(Cl)s1 [compound 1, (2S)-1-(5-chlorothiophene-2-sulfonyl)-N-({4-[4-(trifluoromethyl)phenyl]thiazol-2-yl}methyl)pyrrolidine-2-carboxamide] | 6.85 | 36
O=C(NCc1nc(-c2ccc(OC(F)(F)F)cc2)cs1)[C@@H]1C=CCN1S(=O)(=O)c1ccc(Cl)s1 [compound 20, (2S)-1-(5-chlorothiophene-2-sulfonyl)-N-({4-(4-(trifluoromethoxy)phenyl]-thiazol-2-yl}methyl)-3,4-didehydropyrrolidine-2-carboxamide] | 7.05 | 43
O=C(NCc1nc(-c2ccc(C(F)(F)F)cc2)cs1)[C@@H]1CCCN1S(=O)(=O)c1ccc(Br)s1 [compound 39, (2S)-1-(5-bromothiophene-2-sulfonyl)-N-({4-[4-(trifluoromethyl)phenyl]thiazol-2-yl}methyl)pyrrolidine-2-carboxamide] | 6.70 | –
O=C(NCc1nc(-c2ccc(C(F)(F)F)cc2)cs1)[C@@H]1CCCN1S(=O)(=O)c1cc(Br)c(Cl)s1 [compound 40, (2S)-1-(4-bromo-5-chlorothiophene-2-sulfonyl) ({4-[4-{trifluoromethyl)-phenyl]thiazol-2-yl}methyl) pyrrolidine-2-carboxamide] | 6.57 | –
Cc1ccc(S(=O)(=O)N2CCC[C@H]2C(=O)NCc2nc(-c3ccc(C(F)(F)F)cc3)cs2)s1 [compound 41, (2S)-1-(5-methylthiophene-2-sulfonyl)-N-({4-[4-(trifluoro-methyl)phenyl]thiazol-2-yl}-methyl)pyrrolidine-2-carboxamide] | 5.72 | –
O=C(NCc1nc(-c2ccc(C(F)(F)F)cc2)cs1)[C@@H]1CCCN1S(=O)(=O)c1ccc(Br)cc1 [compound 42, (2S)-1-(4-bromobenzene-2-sulfonyl)-N-({4-[4-(trifluoro-methyl)phenyl]thiazol-2-yl)-methyl)pyrrolidine-2-carboxamide] | 5.83 | –
O=C(NCc1nc(-c2ccc(C(F)(F)F)cc2)cs1)[C@@H]1CCCN1S(=O)(=O)c1cccc(Cl)c1 [compound 43] | 5.57 | –
O=C(NCc1ccc(-c2ccc(OC(F)(F)F)cc2)s1)[C@@H]1CCCN1S(=O)(=O)c1ccc(Cl)s1 [compound 44, (2S)-1-(5-chlorothiophene-2-sulfonyl)-N-({5-[4-(trifluoro-methoxy)phenyl]-2-thienyl}methyl)pyrrolidine-2-carboxamide] | 6.92 | –
Cc1sc(-c2ccc(C(F)(F)F)cc2)nc1CNC(=O)[C@@H]1CCCN1S(=O)(=O)c1ccc(Cl)s1 [compound 45, (2S)-1-(5-chlorothiophene-2-sulfonyl)-N-({5-methyl-2-[4-(trifluoromethyl)phenyl]-thiazol-4-yl}methyl)-pyrrolidine-2-carboxamide] | 6.96 | –
O=C(NCc1nc(-c2ccc(C(F)(F)F)cc2)cs1)[C@@H]1CCCN1S(=O)(=O)c1ccc(Cl)nc1 [compound 46, (2S)-1-[(6-chloro-3-pyridyl)-sulfonyl]-N-({4-[4-(trifluoro-methyl)phenyl]thiazol-2-yl}-methyl)pyrrolidine-2-carboxamide] | 6.24 | –
O=C(NCc1nc(-c2ccc(C(F)(F)F)cc2)cs1)[C@@H]1CCCN1S(=O)(=O)c1ccccc1 [compound 47, (2S)-1-(benzenesulfonyl)-N-({4-[4-(trifluoromethyl)-phenyl]thiazol-2-yl}methyl)-pyrrolidine-2-carboxamide] | 6.09 | –
O=C(NCc1nc(-c2ccc(C(F)(F)F)cc2)cs1)[C@@H]1CCCN1S(=O)(=O)c1ccco1 [compound 48, (2S)-1-(2-furylsulfonyl)-N-({4-[4-(trifluoromethyl)-phenyl]thiazol-2-yl}methyl)-pyrrolidine-2-carboxamide] | 6.00 | –
O=C(NCc1nc(-c2ccc(C(F)(F)F)cc2)cs1)[C@@H]1CCCN1S(=O)(=O)c1ccsc1 [compound 49, (2S)-1-(3-thienylsulfonyl)-N-({4-[4-(trifluoromethyl)-phenyl)thiazol-2-yl}methyl)-pyrrolidine-2-carboxamide] | 6.47 | –
O=C(NCc1nc(-c2ccc(C(F)(F)F)cc2)cs1)[C@@H]1CCCN1S(=O)(=O)c1cccc(F)c1 [compound 50, (2S)-1-(3-fluorophenyl) sulfonyl-N-({4-(4-(trifluoro-methyl)phenyl]thiazol-2-yl)-methyl)pyrrolidine-2-carboxamide] | 7.00 | –
O=C(NCc1nc(-c2ccc(C(F)(F)F)cc2)cs1)[C@@H]1CCCN1S(=O)(=O)c1ccc(F)c(F)c1 [compound 51, (2S)-1-(3,4-difluorophenyl)sulfonyl-N-({4-[4-(trifluoromethyl)-phenyl)thiazol-2-yl}methyl)pyrrolidine-2-carboxamide] | 7.22 | –
O=C(NCc1nc(-c2ccc(C(F)(F)F)cc2)cs1)[C@@H]1CCCN1S(=O)(=O)c1ccc(F)c(Cl)c1 [compound 52, (2S)-1-(3-chloro-4-fluoro-phenyl)sulfonyl-N-({4-[4-(trifluoromethyl)phenyl]-thiazol-2-yl}methyl)pyrrolidine-2-carboxamide] | 6.54 | –
O=C(NCc1nc(-c2ccc(C(F)(F)F)cc2)cs1)[C@@H]1CCCN1S(=O)(=O)c1ccc(F)cc1F [compound 53, (2S)-1-(2,4-difluorophenyl)sulfonyl-N-{{4-[4-(trifluoromethyl)-phenyl]thiazol-2-yl}methyl)pyrrolidine-2-carboxamide] | 5.34 | –
O=C(NCc1nc(-c2ccc(C(F)(F)F)cc2)cs1)[C@@H]1CCCN1S(=O)(=O)c1cc(F)cc(F)c1 [compound 54, (2S)-1-(3,5-difluorophenyl)sulfonyl-N-({4-[4-(trifluoromethyl)-phenyl]thiazol-2-yl}methyl)pyrrolidine-2-carboxamide] | 6.77 | –
